Bounds are passed on as bounds.

Here are results for 49 compounds from US8916565B2, “Pyrrolopyrazine-spirocyclic piperidine amides as modulators of ion channels” (priority 2011, dated 2014).

In the assay the target is human NaV subtype, like NaV 1.7 (Homo sapiens, UniProt Q15858). Description: E-VIPR optical membrane potential assay with electrical stimulation. It counts as cell-based. Particulars: active against one or more sodium channels; Table 3 does not name the assay or NaV subtype; read-out: Binned Activity Data (IC50).
Chain of human NaV subtype, like NaV 1.7 (Q15858 whole entry): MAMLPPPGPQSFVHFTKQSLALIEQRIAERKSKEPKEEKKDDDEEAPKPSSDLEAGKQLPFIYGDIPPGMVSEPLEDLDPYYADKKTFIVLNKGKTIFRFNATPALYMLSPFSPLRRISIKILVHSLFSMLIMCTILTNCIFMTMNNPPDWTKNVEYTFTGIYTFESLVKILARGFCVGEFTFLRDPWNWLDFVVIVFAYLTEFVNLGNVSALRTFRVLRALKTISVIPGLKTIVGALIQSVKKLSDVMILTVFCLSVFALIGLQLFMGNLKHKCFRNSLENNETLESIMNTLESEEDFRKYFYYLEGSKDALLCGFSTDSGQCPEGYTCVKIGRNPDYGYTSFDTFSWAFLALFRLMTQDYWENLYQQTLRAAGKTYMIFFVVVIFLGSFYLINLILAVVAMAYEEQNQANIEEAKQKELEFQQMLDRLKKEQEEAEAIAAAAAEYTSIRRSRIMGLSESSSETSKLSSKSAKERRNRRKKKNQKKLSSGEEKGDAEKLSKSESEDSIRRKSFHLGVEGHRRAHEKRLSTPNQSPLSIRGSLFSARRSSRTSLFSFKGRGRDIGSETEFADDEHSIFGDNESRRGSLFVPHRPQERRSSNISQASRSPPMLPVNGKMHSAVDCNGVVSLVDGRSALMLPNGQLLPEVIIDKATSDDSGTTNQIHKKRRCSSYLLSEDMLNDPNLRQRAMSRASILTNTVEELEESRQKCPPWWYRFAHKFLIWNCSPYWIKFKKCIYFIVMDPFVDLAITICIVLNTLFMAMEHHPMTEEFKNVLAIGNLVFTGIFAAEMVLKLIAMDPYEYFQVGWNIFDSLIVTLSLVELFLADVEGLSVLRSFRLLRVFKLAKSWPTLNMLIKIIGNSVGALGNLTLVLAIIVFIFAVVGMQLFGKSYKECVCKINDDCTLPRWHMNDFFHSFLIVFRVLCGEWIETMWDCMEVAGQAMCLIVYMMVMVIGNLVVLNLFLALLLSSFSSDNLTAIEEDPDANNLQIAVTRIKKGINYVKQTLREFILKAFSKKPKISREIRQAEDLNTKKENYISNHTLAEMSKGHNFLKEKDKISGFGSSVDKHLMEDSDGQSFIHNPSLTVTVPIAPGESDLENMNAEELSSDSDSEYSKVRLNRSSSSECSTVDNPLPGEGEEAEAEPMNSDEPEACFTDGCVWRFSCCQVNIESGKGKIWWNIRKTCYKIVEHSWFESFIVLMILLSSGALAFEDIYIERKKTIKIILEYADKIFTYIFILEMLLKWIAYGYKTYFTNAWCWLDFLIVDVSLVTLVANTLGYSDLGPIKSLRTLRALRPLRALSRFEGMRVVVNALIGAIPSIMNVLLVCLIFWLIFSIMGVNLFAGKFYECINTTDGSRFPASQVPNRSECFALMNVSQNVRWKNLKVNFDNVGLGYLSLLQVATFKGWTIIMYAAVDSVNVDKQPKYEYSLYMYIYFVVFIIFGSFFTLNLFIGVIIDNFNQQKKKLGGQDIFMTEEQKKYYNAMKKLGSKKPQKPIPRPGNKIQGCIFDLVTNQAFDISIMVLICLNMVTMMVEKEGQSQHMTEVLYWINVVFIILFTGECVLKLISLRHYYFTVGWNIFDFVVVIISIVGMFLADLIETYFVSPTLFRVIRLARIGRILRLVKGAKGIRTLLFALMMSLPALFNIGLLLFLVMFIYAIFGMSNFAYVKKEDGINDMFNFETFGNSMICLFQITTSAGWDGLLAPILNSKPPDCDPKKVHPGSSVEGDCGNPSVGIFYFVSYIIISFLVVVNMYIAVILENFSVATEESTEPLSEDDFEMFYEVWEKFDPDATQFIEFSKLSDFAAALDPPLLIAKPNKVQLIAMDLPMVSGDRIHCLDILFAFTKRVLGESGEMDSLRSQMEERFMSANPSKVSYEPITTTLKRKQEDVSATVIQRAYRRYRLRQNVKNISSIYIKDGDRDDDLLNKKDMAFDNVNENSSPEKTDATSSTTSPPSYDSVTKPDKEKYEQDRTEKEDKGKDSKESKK

In general, IC50 refers to the concentration at which inhibition is half-maximal. In the case of `CN1CCn2c(C(=O)C(C)(C)C)ccc2C12CCN(C(=O)c1ccc(C(C)(C)O)c(F)c1)CC2` [Compound 251], the IC50 is no more than 2000 nM.
The value for `COc1ccc(C(=O)N2CCC3(CC2)c2ccc(C(=O)C(F)(F)F)n2C[C@@H](C)N3C)cc1Cl` [Compound 252] was greater than 5000 nM; that for `CN1CCn2c(ccc2C(F)(F)C(F)(F)F)C12CCN(C(=O)c1ccc(C(C)(C)O)c(F)c1)CC2` [Compound 253] was no more than 2000 nM.
As for `CC1(C)Cn2c(C(=O)C(F)(F)F)ccc2C2(CCN(C(=O)c3ccc(C(C)(C)O)c(F)c3)CC2)N1` [Compound 254], the figure is no more than 2000 nM; as for `COc1ccc(C(=O)N2CCC3(CC2)c2c(F)cc(C(F)(F)F)n2CCN3C)cc1C(F)(F)F` [Compound 255], no more than 2000 nM; as for `Cc1cc(C(=O)N2CCC3(CC2)NC(C)(C)Cn2cc(F)c(F)c23)ccc1OC(C)C` [Compound 256], greater than 5000 nM.
Consider `CN1CCn2c(C(F)(F)F)ccc2C12CCN(C(=O)c1ccc(S(=O)(=O)C3CC3)cc1)CC2` [Compound 257], for which the IC50 is no more than 2000 nM.
The value for `COc1cc(C(=O)N2CCC3(CC2)c2c(Cl)cc(C(F)(F)F)n2CCN3C)ccc1OCC(C)(C)F` [Compound 258] was no more than 2000 nM; that for `COC(=O)N1CCn2c(C(F)(F)F)ccc2C12CCN(C(=O)c1ccc(OC(C)C)c(OC)c1)CC2` [Compound 259] was no more than 2000 nM; that for `CC(=O)c1ccc2n1CCN(C)C21CCN(C(=O)c2ccc(Cc3ccccc3)cc2)CC1` [Compound 260] was 2000 to 5000 nM.
As for `Cc1nc(C(=O)N2CCC3(CC2)c2c(Cl)cc(C(F)(F)F)n2CCN3C)ccc1OC(C)C` [Compound 261], the figure is no more than 2000 nM; as for `Cc1cc(C(=O)N2CCC3(CC2)c2c(F)cc(C(F)(F)F)n2CCN3C)ccc1C(C)(C)O` [Compound 262], no more than 2000 nM; as for `Cc1cc(C(=O)N2CCC3(CC2)c2ccc(C(F)(F)F)n2CCN3C)ccc1OCC(C)(C)O` [Compound 263], no more than 2000 nM.
Regarding `COc1c(F)cccc1C(=O)N1CCC2(CC1)c1ccc(C(=O)C(F)(F)F)n1C[C@H](C)N2C` [Compound 264], the IC50 was no more than 2000 nM.
The value for `Cc1cc(C(=O)N2CCC3(CC2)NCCn2c(C(F)(F)F)ccc23)ccc1S(=O)(=O)N(C)C` [Compound 265] was no more than 2000 nM; that for `Cc1cc(C(=O)N2CCC3(CC2)c2ccc(C(=O)C(F)(F)F)n2CCN3C)ccc1C(C)(C)O` [Compound 266] was no more than 2000 nM.
As for `CN1CCn2c(C(=O)C3(C)CC3)ccc2C12CCN(C(=O)c1ccc(C(C)(C)O)cc1)CC2` [Compound 267], the figure is 2000 to 5000 nM.
On to `CC(=O)c1ccc2n1CCN(C)C21CCN(C(=O)c2ccc(S(=O)(=O)C(F)F)cc2)CC1` [Compound 268], for which the IC50 is greater than 5000 nM.
The value for `COCCN1CCn2cccc2C12CCN(C(=O)c1ccc(OC(C)C)c(C)c1)CC2` [Compound 269] was no more than 2000 nM; that for `CC(C)Oc1ccc(C(=O)N2CCC3(CC2)NC(C)(C)Cn2c(C(=O)C(F)(F)F)ccc23)cc1Cl` [Compound 270] was no more than 2000 nM.
The value for `CN1CCn2c(C(=O)C(F)(F)F)ccc2C12CCN(C(=O)c1ccc(Cl)c(O)c1)CC2` [Compound 271] was greater than 5000 nM; that for `CN1CCn2c(C(F)(F)F)ccc2C12CCN(C(=O)c1ccccc1OC(F)(F)F)CC2` [Compound 272] was 2000 to 5000 nM.
As for `CC(C)Oc1ccc(C(=O)N2CCC3(CC2)NCCn2c(C(F)(F)F)ccc23)cc1` [Compound 273], the figure is 2000 to 5000 nM.
On to `CN1CCn2c(C(=O)C(C)(C)C)ccc2C12CCN(C(=O)c1ccc(S(=O)(=O)NC3CC3)cc1)CC2` [Compound 274], for which the IC50 is no more than 2000 nM.
For `CCCCc1ccc(C(=O)N2CCC3(CC2)c2ccc(Cl)n2CCN3C)cc1` [Compound 275], the IC50 lay within 2000 to 5000 nM.
As for `COc1ccc(C(=O)N2CCC3(CC2)c2ccc(C(=O)C4(C)CC4)n2CCN3C)cc1C` [Compound 276], the figure is no more than 2000 nM.
The value for `CC(=O)c1ccc2n1CC(C)(C)NC21CCN(C(=O)c2ccc(OC(C)C)c(Cl)c2)CC1` [Compound 277] was no more than 2000 nM.
With `CCc1ccc(C(=O)N2CCC3(CC2)c2ccc(C(C)=O)n2CCN3C)cc1` [Compound 278], the IC50 was greater than 5000 nM.
The value for `Cc1cc(C(=O)N2CCC3(CC2)c2ccc(CC(F)(F)F)n2CCN3C)ccc1OC(C)C` [Compound 279] was no more than 2000 nM; that for `Cc1cc(C(=O)N2CCC3(CC2)NCC(C)(C)n2c(C(F)(F)F)ccc23)ccc1OC(C)C` [Compound 280] was no more than 2000 nM.
Turning to `CN1CCn2c(C(F)(F)F)ccc2C12CCN(C(=O)c1cccc3cccnc13)CC2` [Compound 281], the IC50 is no more than 2000 nM.
The value for `COc1ccc(C(=O)N2CCC3(CC2)c2ccc(C(=O)C4(C)CC4)n2CCN3C)cc1C(F)(F)F` [Compound 282] was no more than 2000 nM; that for `CNS(=O)(=O)c1ccc(C(=O)N2CCC3(CC2)NCCn2c(C(F)(F)F)ccc23)cc1C` [Compound 283] was 2000 to 5000 nM.
As for `CC(C)CCOc1ccc(C(=O)N2CCC3(CC2)NCC(C)n2c(C(=O)C(F)(F)F)ccc23)cc1` (stereo not shown) [Compound 284], the figure is no more than 2000 nM; as for `CC(=O)c1ccc2n1CCN(C)C21CCN(C(=O)c2ccc(OC(C)C)c(C#N)c2)CC1` [Compound 285], 2000 to 5000 nM.
As for `CC(=O)c1ccc2n1CC(C)(C)NC21CCN(C(=O)c2ccc(OC(C)C)cc2F)CC1` [Compound 286], the figure is no more than 2000 nM.
Consider `CN1CCn2c(C(=O)C(F)(F)F)ccc2C12CCN(C(=O)c1ccc(-c3ccccc3)c(O)c1)CC2` [Compound 287], for which the IC50 was 2000 to 5000 nM.
The value for `COc1cc(C(=O)N2CCC3(CC2)c2ccc(C(=O)C(F)(F)F)n2CCN3C)ccc1COCCC(F)(F)F` [Compound 288] was no more than 2000 nM; that for `CN1CCn2c(ccc2C(F)(F)C(F)(F)F)C12CCN(C(=O)c1ccc(S(=O)(=O)NC3CC3)cc1)CC2` [Compound 289] was no more than 2000 nM.
As for `CC(C)c1ccc(C(=O)N2CCC3(CC2)c2ccc(C(=O)C(F)(F)F)n2CCN3C)cc1` [Compound 290], the figure is no more than 2000 nM; as for `Cc1cc(C(=O)N2CCC3(CC2)c2ccc(C(=O)C(F)(F)F)n2CCN3C)cnc1OC(C)C` [Compound 291], no more than 2000 nM.
Consider `CCCc1ccc(C(=O)N2CCC3(CC2)c2ccc(C(C)=O)n2CCN3C)cc1` [Compound 292], for which the IC50 is greater than 5000 nM.
As for `CCC(c1ccc(F)cc1)n1cc(C(=O)N2CCC3(CC2)c2ccc(C(F)(F)F)n2CCN3C)nn1` (stereo not shown) [Compound 293], the figure is greater than 5000 nM; as for `CC[C@@H](C)Oc1ccc(C(=O)N2CCC3(CC2)c2ccc(Cl)n2CCN3C)cc1OC` [Compound 294], no more than 2000 nM; as for `Cc1cc(C(=O)N2CCC3(CC2)c2ccc(C(=O)C(F)(F)F)n2CCN3C)ccc1-c1ccn(C)n1` [Compound 295], greater than 5000 nM.
`CCOC(=O)N1CCn2c(C#N)ccc2C12CCN(C(=O)c1ccc(OC(C)C)c(Cl)c1)CC2` [Compound 296]: the IC50 is no more than 2000 nM.
The value for `CCOc1ncccc1C(=O)N1CCC2(CC1)c1ccc(C(F)(F)F)n1CCN2C` [Compound 297] was no more than 2000 nM.
For `CCS(=O)(=O)c1ccc(C(=O)N2CCC3(CC2)c2ccc(C(F)(F)F)n2CCN3C)cc1C` [Compound 298], the IC50 is no more than 2000 nM.
For the compound `COc1cc(C(=O)N2CCC3(CC2)c2ccc(C(F)(F)C(F)(F)F)n2CCN3C)ccc1OC(C)(C)C` [Compound 299], the IC50 is no more than 2000 nM.
